Values of other authors, collected in patent publication US20190281871A1, “CHICORY PRODUCTS CONTAINING CANNABINOIDS” (Full Spectrum Laboratories Ltd, priority 2016, published 2019).

Experiments:
CB1 receptor = CB1 receptor (Homo sapiens, UniProt P21554)
5-HT1A receptor = target: T1, 5-HT1A receptor (Homo sapiens, UniProt P08908)
T1 sequence (P08908 1-422): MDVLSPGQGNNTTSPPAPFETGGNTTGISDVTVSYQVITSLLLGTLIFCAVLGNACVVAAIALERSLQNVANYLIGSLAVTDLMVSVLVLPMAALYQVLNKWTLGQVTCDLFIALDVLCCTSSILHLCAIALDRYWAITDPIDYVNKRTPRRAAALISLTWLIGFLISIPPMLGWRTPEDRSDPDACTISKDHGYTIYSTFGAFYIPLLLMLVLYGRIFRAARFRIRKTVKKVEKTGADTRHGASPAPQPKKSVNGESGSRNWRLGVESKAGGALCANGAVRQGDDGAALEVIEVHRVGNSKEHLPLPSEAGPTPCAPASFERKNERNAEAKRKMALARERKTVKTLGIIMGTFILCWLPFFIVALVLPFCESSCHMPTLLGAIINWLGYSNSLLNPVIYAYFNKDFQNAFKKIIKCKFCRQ

CB1 receptor, sequence (P21554 whole entry): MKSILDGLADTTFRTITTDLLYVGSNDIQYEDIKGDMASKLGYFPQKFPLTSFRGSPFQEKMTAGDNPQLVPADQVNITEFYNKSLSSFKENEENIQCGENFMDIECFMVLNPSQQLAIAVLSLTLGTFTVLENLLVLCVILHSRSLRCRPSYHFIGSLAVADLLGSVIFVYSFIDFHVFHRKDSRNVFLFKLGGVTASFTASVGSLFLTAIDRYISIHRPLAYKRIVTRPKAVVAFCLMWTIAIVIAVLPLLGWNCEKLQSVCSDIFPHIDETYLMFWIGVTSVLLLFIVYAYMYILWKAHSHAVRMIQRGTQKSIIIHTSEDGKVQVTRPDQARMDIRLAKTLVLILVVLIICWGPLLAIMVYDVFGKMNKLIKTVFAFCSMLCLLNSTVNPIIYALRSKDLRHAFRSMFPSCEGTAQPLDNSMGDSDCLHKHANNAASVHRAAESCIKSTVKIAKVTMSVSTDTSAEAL

CCCCCc1cc(O)c(C/C=C(\C)CCC=C(C)C)c(O)c1 [CBG, cannabigerol]
CB1 receptor antagonist affinity (CB1 receptor): low affinity
5-HT1A receptor antagonist affinity (5-HT1A receptor): moderate affinity
α2-adrenergic receptor agonist affinity (α2-adrenergic receptor): high affinity
